# Source: patent US4053632A, “Compounds of spiro-amine type and methods for their use” (priority 1971, dated 1977)
# Entries after “also recorded” stand apart in the source; their conditions may differ. Like-named read-outs stand apart in the source and are kept apart here.
# Columns and labels:
# [1] = system: conditioned avoidance response (CAR); assay: Conditioned avoidance response in rats; assay type: in vivo, rat; details: for ED50: Rattus norvegicus, ip, 1 h, i.p.
# Description: For this reason the conditioned avoidance test has been developed for initial screening of neuroleptics. Rats were trained to avoid electrical shock by jumping from one compartment to the other in a shuttle box. The conditioned stimulus consists of an auditory signal which after eight seconds was followed by the electrical shock. The rates were trained to a criterion of making eight out of ten responses correctly. The drugs were injected one hour before the test. The avoidance responses are expressed in percentage of those before administration. CD50 is the dose which reduces the avoidance response to 50% of control values.
# [2] = system: uptake of 5-HT (midbrain slices); assay: Inhibition of the uptake of tritiated 5-HT in vitro (brain slices); assay type: biochemical, mouse
# [3] = system: uptake of noradrenaline (cortex slices); assay: Inhibition of the uptake of tritiated noradrenaline in vitro (brain slices); assay type: biochemical; details: dl-noradrenaline 10^-7 M
# [4] = in vivo; details: mouse
# Description: (§3) The compounds were given by intravenous route to 3 mice. […] Seizures, gait, sedation and grip strength were recorded.
# (§4) Acute toxicity was tested by the intraveneous, intraperitoneal and oral routes of administration. […] During the oral route a behavioral scoring system was used in order to relate changes in behavior to dose. The LD50 values were determined graphically from log dose -- response curves based on four doses with three animals per dose. Peripheral parasympatholytic effect was tested in mice by observing the mydriatic effect after intravenous injection (9) (four doses with three animals per dose). PD200 refers to the dose which increases the pupil width by 200%.
# [5] = system: catalepsy; assay: Catalepsy; assay type: in vivo; details: rat
# Excerpt: (§1) Using the method and intensity scaring system described by Costall and Naylar, (7), the cataleptic properties of SIR 109 and chloropromazine were studied. Briefly, an animal was classed as cataleptic if it remained in an abnormal position for 15 seconds. Additionally, the duration the animal held this position was converted to a numerical scare as an indication of the intensity of the catalepsy.
# [6] = Catalepsy; assay type: in vivo
# Excerpt: as §1
# [7] = system: methamphetamine induced hyperactivity; assay: Antagonism of methamphetamine-induced hyperactivity; assay type: in vivo, mouse; details: mice, FIG. 1, in words
# Description: Sedatives (e.g. barbiturates, benzodiazepines and propandiols) on the other hand generally potentiate the induced hyperactivity. The interaction with amphetamines consequently gives an indication of the mechanism of a drug. Male mice were pretreated with the test drug 30 minutes before the administration of methamphetamine 3 mg/kg i.p. After 20 minutes the spontaneous motor activity was measured for 20 minutes by an Animex activity meter, which can distinguish between slight and considerable motion. The animals were tested in groups of three and used only once. Control groups treated with saline alone or the test drug and saline according to the testing schedule were run simultaneously.
# [8] = system: uptake of 5-HT (midbrain slices); assay: Inhibition of the uptake of tritiated 5-HT in vivo; parameters: species or system mouse; details: for ED50: Mus musculus, ip, 0.5 h, i.p., in vivo, read-out: Inhibition (50 %) of uptake in vivo, 5-HT
# Description: The drugs were administered intraperitoneally half an hour before the animals were killed and the midbrain was taken out and sliced and incubated in a mixture consisting of, per 100 mg of brain slices, 0.2 μmole of ^3 H-5-HT and 1 μmole of glucose in 2 ml of Krebs-Henseleit buffer, pH 7.4. The incubation time was 5 minutes with 5 minutes of preincubation before ^3 H-5-HT was added. The radioactive ^3 H-5-HT taken up in the slices was extracted with ethanol and the amount was determined by liquid scintillation. The dose producing 50 per cent decrease of the active uptake (ED50) was determined graphically from dose response curves. Active uptake is defined as that part of the radioactive uptake which is inhibited by a high concentration of cocaine. All doses were given at least to four animals.
# [9] = system: DA turnover / dopamine receptor; assay: Estimation of DA receptor blockade (DA turnover) in the rat brain; assay type: in vivo; details: for effect on DA turnover: in words; for minimal effective dose: ip, read-out: first significant dose, effect on brain dopamine level
# Excerpt: (§2) The estimation of catecholamine (CA) turnover was made by using the tyrosine hydroxylase inhibitor α-methyl tyrosine methyl ester (H 44/68) (4). This technique is based on the assumption that dopamine (DA) or noradrenaline (NA) receptor blockade will mediate an increase in CA turnover and result in lowered CA levels in the brain compared to H 44/68 alone. Since DA receptor blockade is assumed to be a biochemical correlate to antipsychotic action, this test gives a biochemical evidence for an antipsychotic effect. In this particular test the DA and NA levels in the brain were measured biochemically (5,6).
# [10] = system: NA turnover / noradrenaline receptor; assay: Estimation of NA receptor blockade (NA turnover) in the rat brain; assay type: in vivo; details: for minimal effective dose: ip, read-out: first significant dose, effect on brain noradrenaline level
# Excerpt: as §2
# [11] = system: motor activity; assay: Motor activity in mice; assay type: in vivo, mouse; details: for ED50: Mus musculus, 1 h
# Description: The exploratory activity of mice was recorded in a locomotion cage in which the movements were counted each time the animals cross-circuits on electrical current in the bottom plate. […] The animals were tested individually. Groups of six mice were used and the mice were only used once. The activity was expressed in percent of the activity of control groups ran simultaneously.
# Sedative activity was defined as suppression of normal motor activity. The motor activity in mice was automatically recorded in a locomotion cage in which the movements are counted each time the animal short-circuits an electrical current in the bottom plate. […] The animals were tested individually. Groups of six mice were used. The activity was expressed in percent of the activity of control groups run simultaneously.
# [12] = system: aggressive behavior; assay: Aggressive behavior (anti-aggressive test) in isolated mice; assay type: in vivo, mouse; details: for ED50: Mus musculus, ip, 1 h, read-out: Anti-aggresive test ED50; for effect on aggressive behavior: in words
# Description: Anxiolytic effect was defined as a block of aggressive behavior in mice. Male mice kept isolated for 3 weeks or longer develop an aggressive behaviour when caged together. The method used followed that reported by Valzelli et al. (8) with the exception that two mice were tested together. The aggressiveness was scored during a five minute test according to the following scale:
# 0: the animals show no interest in each other except occasional nosing,
# […]: frequent vigorous nosing and tail twitching. The animals assume a fighting position and occasionally attack the partner -- no more than 3-4 times in the period of five minutes,
# 50: tail twitching, powerful attacks -- no more than 10 times during the test period,
# 75: the animals pursue their partners, attacking and biting for most of the time,
# 100: attacks over the entire period.
# Controls administered with the solvent were tested. […] The animals were used for several experiments but with intervals of at least one week. Groups of 10 mice were used, and they were tested one hour after the administration of the drug. The animals were used as their own controls.
# [13] = system: mice; assay: Behavioral observation (ptosis, catatonia) in mice; assay type: in vivo, mouse
# [14] = system: pupil width (mydriasis); details: mouse, in vivo
# Description: as §3, §4
# [15] = system: uptake of noradrenaline (cortex slices); assay: Inhibition of the uptake of tritiated noradrenaline in vivo; details: ip, read-out: Inhibition (50 %) of uptake in vivo, NA
# Description: The animals were killed half or one hour after the administration of the drugs in vivo (i.p.). The slices, made from cortex, were preincubated for five minutes and incubated with 0.1 μmole per ml of ^3 H-noradrenaline for further five minutes. The incubation mixture consisted of 0.2 μmole of ^3 H-NA and the brain slices in 2 ml of Krebs-Henseleits buffer, pH 7.4. The radioactive ^3 H-NA taken up in the slices was extracted with ethanol and the amount was determined by liquid scintillation. The dose producing 50 per cent decrease of the active uptake (ED50) was determined graphically from dose response curves. At least four animals were used at each dose level.
# [16] = system: mice; assay: Acute toxicity in mice; details: in words
# Description: as §3, §4
# [17] = system: conditioned avoidance response (CAR); details: general knowledge, in words; cited from earlier work
# [18] = system: 5-HTP response; assay: 5-HTP response potentiation test; assay type: in vivo, mouse; details: Mus musculus, ip
# Description: These small movements are quantitatively measured in an activity box, type Animex, which can distinguish between small and gross movements. The activity is measured during 20 minutes and only in the case the animals have a fullblown syndrome.
# [19] = system: l-Dopa response; assay: Dopa response potentiation test; assay type: in vivo, mouse; details: Mus musculus, ip; read-out: Potentiation of l-Dopa, effective dose
# Description: This test is developed by G.M. Everett (Antidepressant drugs,[…] in groups of 3 are pretreated with Pargyline ®40 l mg/kg p.o. about 10-16 hours before the test. […] 1. piloerection, slight salivation, slight increased motor activity 2. piloerection, salivation, marked increased motor activity and irritability 3. piloerection, profuse salivation, marked irritability and reactivity, jumping, squeaking, fighting.
# [20] = system: rabbits; assay: Drug induced arrhythmias in rabbits; assay type: in vivo, rabbit
# Excerpt: Test drugs were intravenously administered to male rabbits anesthesized wth amytal. The doses were increased stepwise up to the lethal dose and the first dose which induced arrhythmia was noted.
# [21] = rat, after H 44/68 250 mg/kg i.p.
# [22] = mice, read-out: Motor activity ID50
smiles,measurement,setting,value
"CN(C)C1C=CC2(CC1)c1ccccc1CCc1ccc(Cl)cc12 (racemic) [SIR 109, 3'-chloro-10', 11'-dihydro-4-(dimethylamino)spiro[2-cyclohexene-1,5'(5'H)-dibenzo[a,d]cycloheptene]]",ED50,"[1]; rat, read-out: CAR CD50",7.5 to 10 mg/kg
same,ED50,[1]; read-out: CAR ED50 (Table 4),7.5 to 10 mg/kg
same,effect on conditioned avoidance response,"[1]; rat, in words",somewhat less active than chlorpromazine; also recorded: about as potent as chlorpromazine
same,"Inhibition (50 %) of uptake in vitro, 5-HT",[2],1.3 µg/mL
same,"Inhibition (50 %) of uptake in vitro, NA",[3],1.5 µg/mL
same,LD50 at 24 h,[4]; ip,185 mg/kg
same,LD50 at 24 h,[4]; iv,40 mg/kg
same,LD50 at 24 h,[4]; po,250 mg/kg
same,Catalepsy intensity score,[5],0.75
same,cataleptic effect,[5]; in words,weak cataleptic effect in the rat; also recorded: intensity of catalepsy was considerably lower after SIR 109 compared to CPZ; also recorded: low cataleptic action
same,ED50,"[6]; in vivo, ip, rat",25 mg/kg
same,block of methamphetamine induced hyperactivity,[7],blocked methamphetamine induced hyperactivity in mice; also recorded: about as potent as chlorpromazine
same,ED50,[8],> 40 mg/kg
same,effect on DA turnover,[9],effects DA turnover at about the same dose; also recorded: about as potent as chlorpromazine
same,minimal effective dose,[9]; [21],5 mg/kg
same,effect on NA turnover / selectivity versus DA turnover,[10]; in words,seems to be more selective than chlorpromazine since it influences NA turnover first at higher doses; also recorded: more selective compound than chlorpromazine since it affects NA turnover first at higher doses
same,minimal effective dose,[10]; [21],10 to 15 mg/kg
same,ED50,[11]; [22],5 mg/kg
same,ED50,"[11]; ip, i.p., mice, read-out: Motor activity ID50 (Table 4)",5 mg/kg
same,sedation / tranquilizing effect,[11]; in words,tranquilizing effect of the compound; also recorded: strongly sedative or tranquilizing
same,sedation (motor activity) versus CPZ,"[11]; mice, in words",caused sedation in the mice at about the same dose as CPZ; also recorded: about as potent as chlorpromazine
same,ED50,"[12]; i.p., mice",0.27 mg/kg
same,effect on aggressive behavior,[12]; mice,potent at a dose which does not cause sedation; also recorded: strong effect of SIR 109 on aggressive behavior at non-sedative doses
same,threshold dose for ptosis,"[13]; mouse, in vivo",31 mg/kg
same,catatonic state,"[13]; mouse, in vivo, po",did not cause any catatonic state
same,peripheral (parasympatholytic) effects,[14],weak peripheral effects
same,PD200 (Table 4),"[14]; iv, 10 min",> 40 mg/kg
same,ED50,[15],40 mg/kg
same,acute toxicity versus CPZ,[16],"considerably less toxic than CPZ both after i.v., i.p. and oral administration in the mice; also recorded: considerably less toxic after acute administration"
"CN(C)CCCN1c2ccccc2Sc2ccc(Cl)cc21 [Chlorpromazine, reference compound]",ED50,[1]; read-out: CAR ED50 (Table 4),5 mg/kg
same,LD50 at 24 h,[4]; ip,92 mg/kg
same,LD50 at 24 h,[4]; iv,26 mg/kg
same,LD50 at 24 h,[4]; po,190 mg/kg
same,Catalepsy intensity score,[5]; in vivo,1.0
same,ED50,"[6]; rat, in vivo, ip",7 mg/kg
same,block of methamphetamine induced hyperactivity,[7],blocked methamphetamine induced hyperactivity in mice
same,minimal effective dose,[9]; Rattus norvegicus,5 mg/kg
same,effect on DA turnover,[9],effects DA turnover at about the same dose
same,minimal effective dose,[10]; Rattus norvegicus,5 mg/kg
same,ED50,[12],2 mg/kg
same,effect on aggressive behavior,[12]; mice,effective first at sedative doses
same,threshold dose for ptosis,[13]; mice,4 mg/kg
same,dose from which catatonic state was prominent,"[13]; orally, mouse",≥ 31 mg/kg
same,inhibition of learned responses,[17],inhibit many different types of learned responses
NC1C=CC2(CC1)c1ccccc1C=Cc1ccccc12 (stereo not shown) [CPG 186],"Inhibition (50 %) of uptake in vitro, 5-HT",[2],> 10 µg/mL
same,"Inhibition (50 %) of uptake in vitro, NA",[3],1.5 µg/mL
same,LD50 at 24 h,[4]; iv,25 mg/kg
same,minimal effective dose,[18],25 mg/kg
same,ED50,[8],28 mg/kg
same,blocking the uptake of 5-HT in vivo versus imipramine,[8]; in words,blocks the uptake of 5-HT in equivalent doses
same,minimal effective dose,[19],> 10 mg/kg
same,arrhythmia in rabbits,"[20]; nonlethal doses, in words",did not cause arrhythmia in nonlethal doses in rabbits
same,"Arrythmia (rabbit), accumulated i.v. dose where there are signs of arrythmia","[20]; rabbit, in vivo, iv",> 10
same,ED50,[11]; [22],> 50 mg/kg
same,sedation / tranquilizing effect,[11]; in words,gave sedation only in high doses
same,anticholinergic effects,[14],devoid of the anticholinergic effects
same,Peripheral anti-cholinergic action PD200,"[14]; iv, 10 min",> 25 mg/kg
same,ED50,[15],14 mg/kg
